Assay results reported in patent publication US20140275105A1, “CRYSTAL OF ANDROGEN RECEPTOR AN[…]” (Astellas Pharma Inc., priority 2011, published 2014).
Read-outs that look alike come from different tables or passages of the source.

Key:
Format in all cases: physicochemical
[1] = Solubility in JP1, JP2, JP2+TC, FaSSIF, FeSSIF (shaking 10 minutes at room temperature, HPLC); settings: 10 minutes shaking
Experimental: 0.5 mg to 1 mg of a sample was weighed in 10 mL of a centrifuge tube, and respective solutions (see below) were added thereto such that the amount thereof became approximately 150 μg/mL. In order to disperse the sample uniformly, the solution was sonicated in a water bath for a short period of time, followed by shaking at room temperature for 10 minutes using a shaker SA31 (manufactured by Yamato Scientific Co., Ltd.). The solution after being shaken was filtered with a filter, and the concentration of the compound in the filtrate was determined by HPLC. The following solutions were used.
JP1 (first solution of Japanese Pharmacopoeia Disintegration Test): 2.0 g of sodium chloride was dissolved in 7.0 mL of hydrochloric acid and water and the amount thereof was set to 1000 mL (pH: approximately 1.2).
JP2 (second solution of Japanese Pharmacopoeia Disintegration Test): 118 mL of 0.2 mol/L sodium hydroxide test solution and water were added to 250 mL of 0.2 mol/L potassium dihydrogen phosphate test solution and the amount thereof was set to 1000 mL (pH: approximately 6.8).
JP2+bile acid (JP2+TC): sodium taurocholic acid was added to the second solution of Japanese Pharmacopoeia Disintegration Test such that the amount thereof became 15 mmol/L.
FaSSIF (simulated intestinal fluid (fasted state)): 3 mmol/L of sodium taurochloric acid, 0.75 mmol/L of lecithin, 3.9 g of potassium dihydrogen phosphate, and 7.7 g of potassium chloride were added to 1 L of water and the pH thereof was adjusted to approximately 6.5 using sodium hydroxide.
FeSSIF (simulated intestinal fluid (fed state)): 15 mmol/L of sodium taurochloric acid, 3.75 mmol/L of lecithin, 8.65 g of acetic acid, and 15.2 g of potassium chloride were added to 1 L of water and the pH thereof was adjusted to approximately 5.0 using sodium hydroxide.
Device: LC1100 (manufactured by Agilent Technologies)
Mobile phase: A: 0.01 mol/L aqueous ammonium acetate solution, B: 0.01 mol/L ammonium acetate methanol solution
Column: Developsil Combi-RP-5.5 μm (2.1 mm×50 mm)
Column temperature: 40° C.
Detection wavelength: 254 nm

[2] = Hygroscopicity test (VTI SGA-100); settings: 25° C., 5% to 95% relative humidity
Experimental: Measurement of the hygroscopicity of the crystals of the present invention was performed by using VTI SGA-100 under the conditions of temperature: 25° C., measurement range: 5% to 95% relative humidity, and measurement interval: 5% relative humidity.

[3] = Physical solid stability (powder X-ray diffraction and DSC); settings: 70° C., plugged up, uncontrolled humidity, two weeks
Experimental: With respect to solid state stability of the crystals of the present invention, physical/chemical stability under temperature and humidity conditions, and chemical stability in a light irradiation state were evaluated. The physical stability was evaluated by the powder X-ray diffraction and the differential scanning calorimetry analysis (DSC) (under the above-described measurement conditions). The chemical stability was evaluated by HPLC (related substance test and optical isomer separating test), and represented by the ratio (%) of generated impurities.
(Solid State Stability, Temperature)
In an Incubator IC-450A (manufactured by AS ONE Corporation) set as 70° C., a sample was plugged up and stored under the uncontrolled humidity environment for two weeks.
(Solid State Stability, Temperature/Humidity)

[4] = FaSSIF (simulated intestinal fluid, pH 6.5), FaSSIF (fasted state), pH approximately 6.5, room temperature, read-out: Solubility FaSSIF
[5] = FeSSIF (simulated intestinal fluid, pH 5), FeSSIF (fed state), pH approximately 5.0, room temperature, read-out: Solubility FeSSIF
[6] = JP2+TC (JP2 + bile acid), JP2 + 15 mmol/L sodium taurocholic acid, room temperature, read-out: Solubility JP2 + TC
[7] = pH 1.2, JP1, pH approximately 1.2, room temperature, read-out: Solubility JP1
[8] = pH 6.8, JP2, pH approximately 6.8, room temperature, read-out: Solubility JP2

For C[C@@H]1CN(c2ccc(C#N)c(Cl)c2)[C@@H](C)CN1C(=O)Nc1cnc(C2CC2)nc1.Cl [(2R,5S)-4-(3-chloro-4-cyanophenyl)-N-(2-cyclopropylpyrimidin-5-yl)-2,5-dimethylpiperazine-1-carboxamide hydrochloride], which solubility at 10 minutes [1, 4] is on record?
Its solubility at 10 minutes is 39.4 µg/mL.

What about the solubility at 10 minutes [1, 5] of the same compound?
The solubility at 10 minutes was over 100 µg/mL.

What about the solubility at 10 minutes [1, 6] of the same compound?
Its solubility at 10 minutes is 92.8 µg/mL.

What about the solubility at 10 minutes [1, 7] of the same compound?
Its solubility at 10 minutes is 9.7 µg/mL.

And the solubility at 10 minutes [1, 8]?
Its solubility at 10 minutes is 10.1 µg/mL.

What about the Hygroscopicity [2] of the same compound?
Its Hygroscopicity is about 1.4%.

And the “Physical solid stability, temperature” value [3]?
The value was “Stable to the temperature”.

With Br.C[C@@H]1CN(c2ccc(C#N)c(Cl)c2)[C@@H](C)CN1C(=O)Nc1cnc(C2CC2)nc1 [(2R,5S)-4-(3-chloro-4-cyanophenyl)-N-(2-cyclopropylpyrimidin-5-yl)-2,5-dimethylpiperazine-1-carboxamide hydrobromide] as the compound, how does the solubility at 10 minutes [1, 4] read?
Its solubility at 10 minutes is 41 µg/mL.

And the solubility at 10 minutes [1, 5]?
The solubility at 10 minutes was 94.9 µg/mL.

What about the solubility at 10 minutes [1, 6] of the same compound?
Its solubility at 10 minutes is over 80.6 µg/mL.

And the solubility at 10 minutes [1, 7]?
The solubility at 10 minutes was 12.3 µg/mL.

And the solubility at 10 minutes [1, 8]?
Its solubility at 10 minutes is 19.8 µg/mL.

And the Hygroscopicity [2]?
The Hygroscopicity was 0.1% or less.

What about the “Physical solid stability, temperature” value [3] of the same compound?
Its value is “Stable to the temperature”.

With CS(=O)(=O)O.C[C@@H]1CN(c2ccc(C#N)c(Cl)c2)[C@@H](C)CN1C(=O)Nc1cnc(C2CC2)nc1 [(2R,5S)-4-(3-chloro-4-cyanophenyl)-N-(2-cyclopropylpyrimidin-5-yl)-2,5-dimethylpiperazine-1-carboxamide methanesulfonate] as the compound, how does the solubility at 10 minutes [1, 4] read?
The solubility at 10 minutes was 47.2 µg/mL.

What about the solubility at 10 minutes [1, 5] of the same compound?
The solubility at 10 minutes was over 100 µg/mL.

What about the solubility at 10 minutes [1, 6] of the same compound?
The solubility at 10 minutes was over 100 µg/mL.

And the solubility at 10 minutes [1, 7]?
The solubility at 10 minutes was over 100 µg/mL.

And the solubility at 10 minutes [1, 8]?
Its solubility at 10 minutes is 20.6 µg/mL.

What about the Hygroscopicity [2] of the same compound?
The Hygroscopicity was about 5%.

With C[C@@H]1CN(c2ccc(C#N)c(Cl)c2)[C@@H](C)CN1C(=O)Nc1cnc(C2CC2)nc1.O [(2R,5S)-4-(3-chloro-4-cyanophenyl)-N-(2-cyclopropylpyrimidin-5-yl)-2,5-dimethylpiperazine-1-carboxamide monohydrate] as the compound, how does the solubility at 10 minutes [1, 4] read?
Its solubility at 10 minutes is 4.4 µg/mL.

And the solubility at 10 minutes [1, 5]?
Its solubility at 10 minutes is 17.7 µg/mL.

What about the solubility at 10 minutes [1, 6] of the same compound?
The solubility at 10 minutes was 8.8 µg/mL.

And the solubility at 10 minutes [1, 7]?
The solubility at 10 minutes was 21.8 µg/mL.

And the solubility at 10 minutes [1, 8]?
The solubility at 10 minutes was 1.6 µg/mL.

And the Hygroscopicity [2]?
Its Hygroscopicity is 0.1% or less.

And the “Physical solid stability, temperature” value [3]?
Its value is “Stable to the temperature”.
